Test results as given in patent US20260144798A1, “Disruption of Vascular Smooth Muscle Relaxation by Carfilzomib May be the Primary Reason for CFZ-Induced Vascular Dysfunction” (AMGEN INC., priority 2019, published 2026).

Key:
rat aortic rings [1] = test: Basal vascular tone of isolated rat aortic rings, isometric myograph
Method: An isometric myograph (DMT 620M) was used for ex vivo measurement of vascular function. Eight-to 10-week old Sprague Dawley rats (purchased from Charles River Laboratories, Wilmington, MA) were first anesthetized with 3% isoflurane and then euthanized using inhaled desflurane. The aortas were isolated in an ice-cold, oxygenated (95% O2, 5% CO2) Krebs-Henseleit buffer (118.3 mM NaCl, 4.7 mM KCl, 1.2 mM MgSO4, 1.2 mM KH2PO4, 2.5 mM CaCl2, 25 mM NaHCO3, and 11.0 mM glucose; purchased from Sigma-Aldrich, St. Louis, MO). The thoracic aorta was carefully cleaned to remove perivascular fat and cut into 2-mm rings that were mounted between two stainless steel wires in the myograph chamber containing 8 mL of Krebs-Henseleit buffer in 95% O2 and 5% CO2 at 37° C. First, the rings were equilibrated in the chamber for 20 minutes, followed by a gradual increase of mechanical stretch until a final stretch of 10 mN (Newton) was reached. After an additional incubation with fresh buffer for 30 minutes, the rings were constricted with 8 mL of 80 mM KPSS (43 mM NaCl, 80 mM KCl, 2.5 mM CaCl2, 1.2 mM MgSO4, 1.2 mM KH2PO4, 25.0 mM NaHCO3, and 11.0 mM glucose) for 15 to 20 minutes, followed by 3 washes with the Krebs-Henseleit buffer until the force returned to the baseline stretch. The tension of the aortic rings was continuously measured with the Lab Chart 7 data acquisition system (ADInstruments, Colorado Springs, CO). In Some of the experiments the aortic rings were pre-treated with 100 μM N(gamma)-nitro-L-arginine methyl ester (L-NAME; Sigma-Aldrich) and 10 μM indomethacin for 10 minutes prior to the pre-incubation with CFZ (Amgen Inc.) for 2 hours. After an additional incubation with fresh buffer for 30 minutes, the rings were constricted with 8 mL of 80 mM KPSS (43 mM NaCl, 80 mM KCl, 2.5 mM CaCl2, 1.2 mM MgSO4, 1.2 mM KH2PO4, 25.0 mM NaHCO3, and 11.0 mM glucose) for 15 to 20 minutes, followed by 3 washes with the Krebs-Henseleit buffer until the force returned to the baseline stretch. The tension of the aortic rings was continuously measured with the Lab Chart 7 data acquisition system (ADInstruments, Colorado Springs, CO).
To assess the effect of CFZ on vascular contraction, the aortic rings were pre-treated with or without CFZ for 2 hours, followed by treatment with an increasing concentration of phenylephrine (PE) from 10 nM to 1 μM. After the maximum contraction was achieved, the aortic rings were washed 3 times until the force returned to baseline. The contraction was continuously measured and plotted as percent contraction normalized to the response of KPSS. […] The relaxation was continuously measured and plotted as percent relaxation normalized to the response with 1 μM PE. […]

rat aortic rings [2] = test: Vasopressor-induced contraction of rat aortic rings, myograph
Method: An isometric myograph (DMT 620M) was used for ex vivo measurement of vascular function. Eight-to 10-week old Sprague Dawley rats (purchased from Charles River Laboratories, Wilmington, MA) were first anesthetized with 3% isoflurane and then euthanized using inhaled desflurane. The aortas were isolated in an ice-cold, oxygenated (95% O2, 5% CO2) Krebs-Henseleit buffer (118.3 mM NaCl, 4.7 mM KCl, 1.2 mM MgSO4, 1.2 mM KH2PO4, 2.5 mM CaCl2, 25 mM NaHCO3, and 11.0 mM glucose; purchased from Sigma-Aldrich, St. Louis, MO). […] The tension of the aortic rings was continuously measured with the Lab Chart 7 data acquisition system (ADInstruments, Colorado Springs, CO). […]
To assess the effect of CFZ on vascular contraction, the aortic rings were pre-treated with or without CFZ for 2 hours, followed by treatment with an increasing concentration of phenylephrine (PE) from 10 nM to 1 μM. […] The contraction was continuously measured and plotted as percent contraction normalized to the response of KPSS. […] The relaxation was continuously measured and plotted as percent relaxation normalized to the response with 1 μM PE.

rat aortic rings [3] = test: Acetylcholine-induced relaxation of phenylephrine-precontracted rat aortic rings
Method: (§1) For assessment of the effect of CFZ on vascular relaxation, the pre-treated aortic rings were incubated with 1 μM PE for 20 minutes to induce contraction. For experiments involving sildenafil and tadalafil, a 10-minute pre-treatment with 30 nM of these smooth muscle relaxants was done prior to the incubation with CFZ. After reaching a stable contraction, ACh, sodium nitroprusside (SNP), nifedipine, riociguat, or cinaciguat was added to the chamber at an increasing concentration from 100 pM to 10 μM; each stepwise concentration increase was added after the response to the current concentration reached a plateau. The relaxation was continuously measured and plotted as percent relaxation normalized to the response with 1 μM PE.
(§2) Aortas were isolated from 8-10 week old CD® (Sprague Dawley) rats (from Charles River Laboratories) in an ice-cold, oxygenated (95% O2, 5% CO2) Krebs-Henseleit buffer. The aortas were then carefully cleaned to remove perivascular fat and cut into 2-mm rings that were mounted between two stainless steel wires in the myograph chamber containing 8 mL of Krebs-Henseleit buffer in 95% O2 and 5% CO2 at 37° C. Rings were stretch until a final stretch of 10 mN (Newton) was reached and incubated for 30 mins for equilibration.

rat aortic rings [4] = test: Sodium nitroprusside-induced relaxation of phenylephrine-precontracted rat aortic rings
Method: as §1, §2

sGC-β = test: Western blot of sGC-β in rat aortic smooth muscle cells; type: cell-based; conditions: CFZ for more than 12 hours (FIG. 4A)
Method: Each cell pellet was lysed in 50 to 70 μL RIPA buffer (Cell Signaling Technology, Danvers, MA) with the Halt™ protease and phosphatase inhibitor cocktail (Thermo Fisher Scientific). Lysates were quantitated and loaded onto the Li-COR Western blot system. Antibodies specific to phosphorylated eNOS and eNOS from Thermo Fisher Scientific, anti-Guanylyl Cyclase β1 (ER-19) (Sigma-Aldrich), and β-Actin (Sigma-Aldrich) were diluted 1:1000 for Western blot. Antibodies specific to p-VASP, VASP, and GADPH-HRP were purchased from Cell Signaling Technology.

GUCY1A3 = GUCY1A3 gene expression by RT-PCR in human aortic smooth muscle cells; type: cell-based; conditions: 24-hour treatment, 2.7 μM CFZ, SMCs (FIG. 4B)
Method: To confirm whether results could be replicated in human tissue, human aortic smooth muscle cells (Lonza, Walkersville, MD) were cultured in SmGM-2™ Smooth Muscle Cell Growth Medium-2 BulletKit™ (Lonza). The cells were maintained at 37° C. in a humidified incubator with 5% CO2. Cells were seeded at a concentration of 2.5×10^5 cells/mL of medium. After 1 day of culture, fresh medium with or without 2.7 μM CFZ was added and incubated for 6 or 24 hours.
Cell pellets were lysed in Buffer RLT (Qiagen, Germantown, MD) supplemented with β-mercaptoethanol (Bio-Rad, Hercules, CA). RNA was isolated and purified using QIAcube (Qiagen). The RNA concentration and quality were determined by NanoDrop 8000 spectrophotometer (Thermo Fisher Scientific, Wilmington, DE). DNA contaminant was removed through DNase I (Promega, Madison, WI) digestion prior to quantitative RT-PCR. Quantitative RT-PCR was performed in the QuantStudio 7 Flex RT-PCR system (Thermo Fisher Scientific) with RNA-to-CT 1-Step Kit (Thermo Fisher Scientific) and TaqMan assays (Applied Biosystems, Foster City, CA). The TaqMan assays were GUCY1A3(Hs01015574_m1) and 18S rRNA. Multiplex reactions were run in triplicates with the genes of interest and 18S rRNA normalization control. The average relative quantities were calculated from three separate experiments.

mice = conditions: depending on dosage and administration schedule; cited from earlier work

EC50 for ACh-induced relaxation, CFZ alone (rat aortic rings [3]; FIG. 5B experiment, vehicle alone 1.9×10^−8): 7.3×10^−8
EC50 for ACh-induced relaxation (rat aortic rings [3]; in the presence of CFZ 2.7 μM, vehicle alone 3.2×10^−8 (FIG. 2A)): 1.4×10 ^−7
EC50 for SNP-induced relaxation, CFZ alone (rat aortic rings [4]; FIG. 5A experiment, vehicle alone 7.2×10^−9): 1.7×10^−8
EC50 for SNP-induced relaxation in the presence of L-NAME and indomethacin (rat aortic rings [4]; in the presence of CFZ 2.7 μM, vehicle alone 1.8×10^−8): 4.3×10^−8
SMILES: CC(C)C[C@H](NC(=O)[C@H](CCc1ccccc1)NC(=O)CN1CCOCC1)C(=O)N[C@@H](Cc1ccccc1)C(=O)N[C@@H](CC(C)C)C(=O)[C@@]1(C)CO1 [CFZ, carfilzomib]
percent contraction under eNOS inhibition (limited NO availability) (rat aortic rings [1]; 100 μM L-NAME and 10 μM indomethacin 10 minutes prior to 2-hour CFZ treatment, vs vehicle (FIG. 1B)): significant but minor increase of percent contraction
vascular tone (contraction normalized to 80 mM KPSS) (rat aortic rings [1]; 100 μM LNAME+10 μM indomethacin, 2.7 μM CFZ for 3 hour, vs vehicle (FIG. 10)): increase in vascular tone compared to vehicle
percent contraction (basal vascular tone) (rat aortic rings [1]; rings pretreated with CFZ without L-NAME, compared with vehicle control (FIG. 1A)): did not affect vascular tone
effect on phenylephrine-induced vascular contraction (rat aortic rings [2]; CFZ 0.3, 0.9 or 2.7 μM, increasing phenylephrine (FIG. 1C)): No significant CFZ effect on vascular contraction
effect on potassium chloride-induced vascular contraction (rat aortic rings [2]; CFZ vs vehicle, increasing potassium chloride (FIG. 1D)): No significant CFZ effect on vascular contraction
effect on ACh-induced relaxation (percent relaxation) (rat aortic rings [3]; increasing CFZ concentrations, high concentrations of ACh (FIG. 2A)): significantly compromised
effect on SNP-induced relaxation (rat aortic rings [4]; rings pretreated with CFZ, increasing SNP (FIG. 2B)): appeared to interfere with SNP-induced relaxation
sGC-β protein level (sGC-β): increased with increasing exposure to CFZ
upregulation of GUCY1A3 gene expression (GUCY1A3): more than 25 fold
effect on AMPKα/mTORC1 and PI3K/Akt/eNOS pathways (mice): inhibit AMPKα/mTORC1 pathways
